As a reminder, the solubility is the dissolved amount per volume that the medium holds. Broadly, the IC50 is the concentration that inhibits the measured activity by half. The term logD denotes the decadic logarithm of the distribution of all forms, ionised or not, between an organic phase and buffer at a given pH.

Molecules are shown by their SMILES. ≈ marks a conversion by molar mass, not a printed value. Read-outs that look alike come from different tables or passages of the source.

A short description of data set [1]: Solubility pH = 6.8. In kind it is physicochemical. Conditions: aqueous buffer.
The nature of data set [2]: Solubility FASSIF (fasted state simulated intestinal fluid). Format: physicochemical.
Data set [3] has as its target CYP3A4 (Homo sapiens, UniProt P08684). In words: CYP3A4 (Cytochrome P450 3A4). Format: in vitro ADME.
Data set [4] concerns the target hERG (Homo sapiens, UniProt Q12809). Description: hERG. (In general: The hERG channel carries a current that helps repolarise heart muscle cells.)
A short description of data set [5]: LogD. Format: physicochemical.
The nature of data set [6]: PAMPA (parellel artificial membrane permeability assay). Format: in vitro ADME. Set-up: unit not given here. In general terms: In PAMPA a lipid-coated filter parts donor from acceptor wells.
Data set [7] can be described thus: RLM Cl. In kind it is in vitro ADME.
The target of data set [8] is Dopamine D3 (Homo sapiens, UniProt P35462). Description: Dopamine D3 antagonist. In kind it is biochemical. The procedure:
(§1) Bioactivity and ADME testing were performed for certain compounds of the invention.

Data set [9] concerns the target Dopamine D2 (Homo sapiens, UniProt P14416). Description: Dopamine D2 antagonist. In kind it is biochemical.
Data set [10] addresses CDK2 (Homo sapiens, UniProt P24941). Description: CDK2 inhibitor. In kind it is biochemical.
In data set [11] the target is T1, PPARγ (Homo sapiens, UniProt P37231).
T1 sequence (P37231 1-505): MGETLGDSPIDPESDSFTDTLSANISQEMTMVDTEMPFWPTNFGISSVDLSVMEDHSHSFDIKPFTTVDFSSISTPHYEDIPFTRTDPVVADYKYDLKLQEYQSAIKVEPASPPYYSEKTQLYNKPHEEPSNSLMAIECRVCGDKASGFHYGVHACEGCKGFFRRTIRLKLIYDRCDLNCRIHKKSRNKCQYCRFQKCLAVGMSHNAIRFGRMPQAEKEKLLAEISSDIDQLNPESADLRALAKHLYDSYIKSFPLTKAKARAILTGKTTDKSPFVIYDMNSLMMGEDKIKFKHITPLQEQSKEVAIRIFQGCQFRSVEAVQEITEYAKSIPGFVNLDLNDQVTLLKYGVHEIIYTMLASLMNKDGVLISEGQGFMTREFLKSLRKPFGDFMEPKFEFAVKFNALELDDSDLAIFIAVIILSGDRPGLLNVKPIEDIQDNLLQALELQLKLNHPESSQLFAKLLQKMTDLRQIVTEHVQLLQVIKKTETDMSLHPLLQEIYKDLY
Description: PPARγ antagonist. In kind it is biochemical.

The target of data set [12] is T2, PPARδ (Homo sapiens, UniProt Q03181).
T2 sequence (Q03181 1-441): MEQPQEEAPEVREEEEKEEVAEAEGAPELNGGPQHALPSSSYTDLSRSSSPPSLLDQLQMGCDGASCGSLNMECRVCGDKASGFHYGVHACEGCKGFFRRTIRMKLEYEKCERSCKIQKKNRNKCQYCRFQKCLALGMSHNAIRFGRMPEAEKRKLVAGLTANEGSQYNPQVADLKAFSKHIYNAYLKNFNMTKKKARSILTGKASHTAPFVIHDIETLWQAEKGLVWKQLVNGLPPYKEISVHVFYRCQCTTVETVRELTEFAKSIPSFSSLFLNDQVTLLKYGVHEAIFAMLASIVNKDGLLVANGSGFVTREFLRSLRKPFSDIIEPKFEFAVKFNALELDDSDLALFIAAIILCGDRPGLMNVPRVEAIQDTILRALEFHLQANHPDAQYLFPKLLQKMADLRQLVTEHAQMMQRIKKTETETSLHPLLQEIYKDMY
In words: PPARδ antagonist. Format: biochemical.

In data set [13] the target is T3, PPARα (Homo sapiens, UniProt Q07869).
T3 sequence (Q07869 1-468): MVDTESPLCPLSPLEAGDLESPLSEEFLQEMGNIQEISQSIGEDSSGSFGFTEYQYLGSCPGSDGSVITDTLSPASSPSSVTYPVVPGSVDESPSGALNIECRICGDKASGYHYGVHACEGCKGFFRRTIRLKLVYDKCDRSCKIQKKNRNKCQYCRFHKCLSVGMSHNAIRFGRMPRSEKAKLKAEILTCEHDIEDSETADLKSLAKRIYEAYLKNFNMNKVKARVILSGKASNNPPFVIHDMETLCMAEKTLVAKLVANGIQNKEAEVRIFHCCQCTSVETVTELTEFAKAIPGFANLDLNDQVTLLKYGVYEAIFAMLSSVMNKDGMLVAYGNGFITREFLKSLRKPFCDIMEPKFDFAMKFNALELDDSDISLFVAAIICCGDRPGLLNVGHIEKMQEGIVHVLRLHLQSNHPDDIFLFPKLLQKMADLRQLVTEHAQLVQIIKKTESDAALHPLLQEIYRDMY
In words: PPARα inverse agonist. In kind it is biochemical.

In data set [14] the target is Opioid δ (Homo sapiens, UniProt P41143). Description: Opioid δ antagonist. In kind it is biochemical. The procedure: as §1
Chain of Opioid δ (P41143 whole entry): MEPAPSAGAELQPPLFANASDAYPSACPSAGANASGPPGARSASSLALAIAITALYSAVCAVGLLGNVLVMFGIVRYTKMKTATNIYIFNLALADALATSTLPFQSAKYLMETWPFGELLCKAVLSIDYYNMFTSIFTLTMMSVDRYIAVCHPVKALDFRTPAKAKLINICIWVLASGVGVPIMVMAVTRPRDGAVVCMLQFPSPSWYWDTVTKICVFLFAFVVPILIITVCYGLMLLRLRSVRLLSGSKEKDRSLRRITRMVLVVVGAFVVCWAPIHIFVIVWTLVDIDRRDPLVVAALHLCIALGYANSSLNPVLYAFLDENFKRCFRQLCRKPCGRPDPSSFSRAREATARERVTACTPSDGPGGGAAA
The target in data set [15] is Opioid μ (Homo sapiens, UniProt P35372). In words: Opioid μ antagonist. In kind it is biochemical. How it is done: as §1
Chain of Opioid μ (P35372 whole entry): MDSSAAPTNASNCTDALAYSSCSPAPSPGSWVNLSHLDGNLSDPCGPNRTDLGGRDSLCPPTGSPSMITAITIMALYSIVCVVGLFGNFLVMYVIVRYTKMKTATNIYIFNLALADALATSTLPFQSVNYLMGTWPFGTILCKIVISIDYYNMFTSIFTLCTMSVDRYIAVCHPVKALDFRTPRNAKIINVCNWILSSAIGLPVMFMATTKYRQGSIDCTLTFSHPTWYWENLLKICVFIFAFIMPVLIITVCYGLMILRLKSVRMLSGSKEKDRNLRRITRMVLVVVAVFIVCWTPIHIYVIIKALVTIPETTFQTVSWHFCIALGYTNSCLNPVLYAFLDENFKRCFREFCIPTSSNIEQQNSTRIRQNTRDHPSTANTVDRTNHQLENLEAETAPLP

Chain of hERG (Q12809 whole entry): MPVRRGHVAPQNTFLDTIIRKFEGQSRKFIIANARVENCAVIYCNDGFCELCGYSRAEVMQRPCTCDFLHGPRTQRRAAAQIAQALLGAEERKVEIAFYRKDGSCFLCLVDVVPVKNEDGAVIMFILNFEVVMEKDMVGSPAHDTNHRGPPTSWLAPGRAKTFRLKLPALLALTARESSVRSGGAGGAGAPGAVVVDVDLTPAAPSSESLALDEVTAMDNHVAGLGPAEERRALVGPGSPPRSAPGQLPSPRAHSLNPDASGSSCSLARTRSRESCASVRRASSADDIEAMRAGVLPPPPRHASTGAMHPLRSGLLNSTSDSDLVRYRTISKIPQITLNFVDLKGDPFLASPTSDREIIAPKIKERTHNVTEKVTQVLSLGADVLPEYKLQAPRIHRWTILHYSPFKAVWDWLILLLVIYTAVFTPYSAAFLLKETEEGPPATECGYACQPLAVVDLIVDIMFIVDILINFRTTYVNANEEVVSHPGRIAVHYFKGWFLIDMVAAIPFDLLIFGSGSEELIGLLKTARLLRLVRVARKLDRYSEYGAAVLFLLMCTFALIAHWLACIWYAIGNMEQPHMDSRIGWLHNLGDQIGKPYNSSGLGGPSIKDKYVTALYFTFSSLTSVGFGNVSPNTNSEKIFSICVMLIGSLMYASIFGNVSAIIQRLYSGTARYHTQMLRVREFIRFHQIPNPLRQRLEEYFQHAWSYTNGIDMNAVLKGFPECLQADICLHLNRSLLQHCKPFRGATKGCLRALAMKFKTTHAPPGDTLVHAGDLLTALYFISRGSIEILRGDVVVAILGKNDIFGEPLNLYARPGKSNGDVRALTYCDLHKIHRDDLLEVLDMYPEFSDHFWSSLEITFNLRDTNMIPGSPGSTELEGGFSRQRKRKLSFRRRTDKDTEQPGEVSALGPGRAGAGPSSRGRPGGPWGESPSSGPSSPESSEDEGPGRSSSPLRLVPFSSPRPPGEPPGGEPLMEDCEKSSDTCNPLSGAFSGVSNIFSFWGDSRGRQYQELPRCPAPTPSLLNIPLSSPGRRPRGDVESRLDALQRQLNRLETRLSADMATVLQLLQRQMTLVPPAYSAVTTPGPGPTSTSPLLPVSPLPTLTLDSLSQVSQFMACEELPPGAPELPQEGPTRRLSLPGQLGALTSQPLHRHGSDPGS
Chain of CYP3A4 (P08684 whole entry): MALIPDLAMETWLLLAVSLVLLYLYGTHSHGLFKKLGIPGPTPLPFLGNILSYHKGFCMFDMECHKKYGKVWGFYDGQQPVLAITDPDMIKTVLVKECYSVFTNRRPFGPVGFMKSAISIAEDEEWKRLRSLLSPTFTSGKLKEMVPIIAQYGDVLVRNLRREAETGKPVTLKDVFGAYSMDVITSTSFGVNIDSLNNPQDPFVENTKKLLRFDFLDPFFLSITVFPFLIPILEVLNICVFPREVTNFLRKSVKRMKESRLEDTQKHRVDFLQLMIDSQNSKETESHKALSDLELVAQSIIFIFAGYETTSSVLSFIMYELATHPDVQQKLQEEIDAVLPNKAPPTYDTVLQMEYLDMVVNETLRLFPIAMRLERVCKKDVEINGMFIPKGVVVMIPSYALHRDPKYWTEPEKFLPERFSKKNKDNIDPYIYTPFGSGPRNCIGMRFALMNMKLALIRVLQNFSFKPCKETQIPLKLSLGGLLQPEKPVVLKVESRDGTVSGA
Chain of Dopamine D3 (P35462 whole entry): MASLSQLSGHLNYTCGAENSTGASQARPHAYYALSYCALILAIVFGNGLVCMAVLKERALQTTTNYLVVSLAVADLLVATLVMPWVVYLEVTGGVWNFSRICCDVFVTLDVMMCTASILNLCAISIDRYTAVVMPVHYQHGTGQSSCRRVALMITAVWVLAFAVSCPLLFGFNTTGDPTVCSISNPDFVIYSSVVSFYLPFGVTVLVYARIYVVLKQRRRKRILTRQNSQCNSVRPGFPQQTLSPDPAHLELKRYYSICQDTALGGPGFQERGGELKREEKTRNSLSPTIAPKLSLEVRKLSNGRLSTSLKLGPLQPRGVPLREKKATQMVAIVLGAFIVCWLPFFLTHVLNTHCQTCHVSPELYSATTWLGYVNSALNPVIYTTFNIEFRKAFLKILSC
Chain of Dopamine D2 (P14416 whole entry): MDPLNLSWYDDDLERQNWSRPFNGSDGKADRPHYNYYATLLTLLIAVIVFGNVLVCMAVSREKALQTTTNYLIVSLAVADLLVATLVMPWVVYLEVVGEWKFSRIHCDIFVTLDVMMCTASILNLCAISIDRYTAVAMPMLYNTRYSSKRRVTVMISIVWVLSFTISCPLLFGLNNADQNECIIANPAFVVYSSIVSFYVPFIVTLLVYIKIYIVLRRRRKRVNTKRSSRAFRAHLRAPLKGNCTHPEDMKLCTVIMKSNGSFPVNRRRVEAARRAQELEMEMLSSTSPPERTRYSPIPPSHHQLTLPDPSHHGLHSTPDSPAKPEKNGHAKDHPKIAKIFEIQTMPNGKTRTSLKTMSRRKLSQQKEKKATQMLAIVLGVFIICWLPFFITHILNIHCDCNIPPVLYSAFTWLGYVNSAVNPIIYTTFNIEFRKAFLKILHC

For the molecule `O=C(O)Cc1ccc(-c2ccccc2)cc1`, the values for the solubility in data set [1] and in [2] were 890 µM (≈ 189 µg/mL) and 840 µM (≈ 178 µg/mL), respectively.
Regarding `O=C(O)Cc1ccc(B2C=CC=CN2)cc1`, the figures for the solubility in data set [1] and in [2] were above 1000 µM and 790 µM (≈ 168 µg/mL), respectively. The figures for the IC50 in data set [3] and in data set [4] were above 20 µM and above 30 µM, respectively.
As to `O=C(NC1CCN(Cc2ccccc2)C1)c1ccc(-c2ccccc2)cc1` (stereo not shown), the solubility in data set [1] is 13 µM (≈ 4.63 µg/mL); in [2] it was 27 µM (≈ 9.62 µg/mL). Further, the logD in [5] was determined as 4.4. This molecule yielded a PAMPA in data set [6] of −3.6. Further, the “RLM Cl” value in data set [7] turned out to be 43.7 mL/min/kg. Besides, the IC50 in data set [3] is above 20 µM; in data set [4] it was 0.32 µM.
`O=C(NC1CCN(Cc2ccccc2)C1)c1ccc(B2C=CC=CN2)cc1` (stereo not shown): the solubility in data set [1] was above 30 µM; in data set [2], 597 µM (≈ 213 µg/mL). In [5], this molecule showed a logD of 4.1. This molecule also yielded a PAMPA in data set [6] of −4.8. Besides, the “RLM Cl” value in data set [7] came out at 48.5 mL/min/kg. For the same molecule, the IC50 in [3] was above 20 µM; in data set [4], 1.4 µM.
As to `COc1ccccc1N1CCN(CCCCNC(=O)c2ccc(-c3ccccc3)cc2)CC1`, the solubility is below 5 µM in data set [1] and 21 µM (≈ 9.32 µg/mL) in data set [2]. In [5], this molecule displayed a logD of 4.2. The PAMPA in [6] was −3.9. Besides, the “RLM Cl” value in data set [7] came out at 51.4 mL/min/kg. For the same molecule, the IC50 in [3] is above 20 µM; in data set [4], 0.042 µM; in [8] it was 3 nM.
Take `COc1ccccc1N1CCN(CCCCNC(=O)c2ccc(B3C=CC=CN3)cc2)CC1`: the solubility in data set [1] was 46 µM (≈ 20.4 µg/mL); in [2], 220 µM (≈ 97.8 µg/mL). The logD in data set [5] is 4.1. Moreover, the PAMPA in data set [6] is −4.3. Further, the “RLM Cl” value in data set [7] is above 53 mL/min/kg. For the same molecule, the IC50 stood at 11 µM in data set [3], 0.17 µM in data set [4], 520 nM in [9] and 4 nM in data set [8].
In [5], `COc1ccc2[nH]cc(CCNC(=O)c3ccc(-c4ccccc4)cc3)c2c1` returned a logD above 5. The PAMPA in data set [6] is −4.1. Also, the “RLM Cl” value in [7] amounted to 46.4 mL/min/kg. Besides, the IC50 was above 20 µM in data set [3] and 11 µM in [4].
For `COc1ccc2[nH]cc(CCNC(=O)c3ccc(B4C=CC=CN4)cc3)c2c1` the same measures were 5, −4.2, 51.3 mL/min/kg, 17 µM and 7.9 µM.
With `O=C(NCc1ccncc1)c1ccc(B2C=CC=CN2)cc1`, the figures for the solubility in data set [1] and in data set [2] were 88 µM (≈ 25.4 µg/mL) and 130 µM (≈ 37.6 µg/mL), respectively. Moreover, the logD in [5] amounted to 3.2. The PAMPA in [6] is recorded as −4.6. The “RLM Cl” value in data set [7] came to 39.6 mL/min/kg. Besides, the IC50 in data set [3] was 8.6 µM; in [4], above 30 µM.
`CN(CCc1c[nH]c2ccccc12)C(=O)c1ccc(-c2ccccc2)cc1`: the solubility in data set [1] and in data set [2] was below 5 µM throughout. The same molecule displayed a pH-dependent lipophilicity (logD) in data set [5] above 5. Besides, in [6], the PAMPA is on record as −4.5. The “RLM Cl” value in [7] stood at 48.6 mL/min/kg. The values for the IC50 in [3] and in data set [4] were above 20 µM and above 30 µM, respectively.
With `CN(CCc1c[nH]c2ccccc12)C(=O)c1ccc(B2C=CC=CN2)cc1`, the results for the solubility in data set [1] and in data set [2] were below 5 µM and 13 µM (≈ 4.62 µg/mL), respectively. In addition, the logD in data set [5] stood at 4.6. Besides, the PAMPA in data set [6] is on record as −4.2. For the same molecule, the “RLM Cl” value in data set [7] stood at 52.4 mL/min/kg. In addition, the figures for the IC50 in data set [3] and in data set [4] were above 20 µM and 5.8 µM, respectively.
Regarding `Cl.O=C(Cc1ccc(-c2ccccc2)cc1)Nc1cc(C2CC2)n[nH]1`, the solubility was below 4 µM in [1] and 13 µM in data set [2]. For the same molecule, the logD in [5] was 4.2. In data set [6], this molecule came in with a PAMPA of −3.9. In addition, the “RLM Cl” value in [7] is 50 mL/min/kg. In addition, the results for the IC50 in data set [3] and in [4] were above 20 µM and above 30 µM, respectively.
On to `O=C(Cc1ccc(B2C=CC=CN2)cc1)Nc1cc(C2CC2)[nH]n1`, for which the IC50 in data set [3] is 7.8 µM; in [4], above 30 µM; in data set [10], 240 nM.
In the case of `O=C(NCCS(=O)(=O)c1ccc(C(F)(F)F)cn1)c1ccc(-c2ccccc2)cc1`, the solubility in data set [1] and in data set [2] was below 4 µM each time. Also, the logD in data set [5] worked out at 3.5. This molecule registered a PAMPA in data set [6] of −4.2. Besides, the “RLM Cl” value in [7] was 38.7 mL/min/kg. Moreover, the IC50 is above 20 µM in data set [3], above 20 µM in [4], 1.4 µM in data set [11] and 3900 nM in data set [12].
Turning to `O=C(NCCS(=O)(=O)c1ccc(C(F)(F)F)cn1)c1ccc(B2C=CCCN2)cc1`, the solubility in data set [1] is below 4 µM; in data set [2], 6 µM (≈ 2.62 µg/mL). The molecule also yielded a logD in data set [5] of 3.5. In data set [6], this molecule had a PAMPA of −4.5. Besides, the “RLM Cl” value in [7] was above 53 mL/min/kg. Besides, the IC50 in data set [3] was above 20 µM; in [4] it was above 30 µM; in [13], 52 nM; in [11] it was 4.8 µM; in data set [12] (antagonist, read-out: PPARδ antagonist IC50), 1400 nM.
In the case of `CC(C)[C@@H](CN1CCN(c2cccc(O)c2)[C@@H](C)C1)NC(=O)c1ccc(-c2ccccc2)cc1`, the values for the solubility in data set [1] and in data set [2] were 50 µM (≈ 22.9 µg/mL) and 349 µM (≈ 160 µg/mL), respectively. This molecule yielded a logD in data set [5] of 5.2. Further, the PAMPA in [6] is −5.7. Further, the “RLM Cl” value in data set [7] is above 53 mL/min/kg. Also, the IC50 is above 20 µM in [3], above 30 µM in data set [4], above 30 µM in data set [14] and 7.4 µM in data set [15].
`CC(C)[C@@H](CN1CCN(c2cccc(O)c2)[C@@H](C)C1)NC(=O)c1ccc(B2C=CCCN2)cc1`: the solubility is 26 µM (≈ 12 µg/mL) in data set [1] and 119 µM (≈ 54.8 µg/mL) in [2]. In data set [5], this molecule gave a logD of 4.9. The molecule also showed a PAMPA in [6] of −5.0. Moreover, in [7], the “RLM Cl” value is above 53 mL/min/kg. Besides, the IC50 is 16 µM in [3], 9.1 µM in [4], above 14 µM in data set [14] and 1 µM in data set [15].

These data come from patent publication US20170081347A1, “FUNCTIONALIZED AZABORINE COMPOUNDS AND AZABORINE-CONTAINING BIARYLCARBOXAMIDES, AND COMPOSITIONS AND METHODS THEREOF” (The Trustees of Boston College, priority 2014, published 2017).
